{"source": "patent US20240122937A1", "about": "“TREATING CANCER IN PATIENT WITH PTEN INACTIVATING MUTATION” (TAIHO PHARMACEUTICAL CO., LTD., priority 2021, published 2024)", "key": {"[1]": {"assay": "Phase 2 clinical study, treatment-related adverse events", "assay_type": "in vivo, human", "description": "(§1) The following examples report the results of phase 2 clinical studies where Compound 1 in tablet form was administered orally to patients with different tumor type. In this trial Compound 1 was administered once/day at a dosage of 16 mg/day or 20 mg/day for a 21 day cycle which was repeated as desired. The compound was also administered intermittently on a schedule of 4 days and 3 days off for 21 days per cycle. The cycle was repeated as desired identifies the adverse events in the trials.\nA total of 8 patients (50%) experienced at least 1 treatment-related event of Grade ≥3; the most frequently reported event of this kind was rash and maculopapular rash (25.0%)."}, "[2]": {"test_system": "tumor in patients with advanced cancer", "assay": "Phase 2 clinical study, tumor shrinkage / response", "assay_type": "in vivo, human", "description": "as §1\nThe reported shrinkages are over 50% for patient 100-006, about 10% for patients 100-009 and about 5% for patient 200-007."}, "[3]": {"test_system": "endometrial cancer harboring PIK3CA mutation; ovarian clear cell carcinoma", "assay": "Objective response in patients given oral Compound (1)", "assay_type": "in vivo, human"}, "[4]": {"assay": "Storage stability of crystal form", "assay_type": "physicochemical", "description": "Compound (1) can exist in a crystal form having an x-ray diffraction pattern of least 5 diffraction angles)(20±0.2° selected from 7.7°, 9.5°, 10.3°, 12.3°, 14.5°, 15.6°, 16.3°, 17.8°, 18.3°, 19.3°, 20.9°, 22.8°, 24.2°, 25.7°, 26.8°, 27.7°, 29.0°, and 30.1° in a powder x-ray diffraction spectrum. Preferably the crystal form has peaks at diffraction angles)(20±0.2° 7.7°, 9.5°, 10.3°, 12.3°, 14.5°, 15.6°, 16.3°, 17.8°, 18.3°, 20.9°, 22.8°, 24.2°, 25.7°, 26.8°, 27.7°, 29.0°, and 30.1°. […] The method preparing this crystal form is described in U.S. Pat. No. 10,323,044 the content of which is incorporated herein in its entirety."}, "[5]": {"assay": "Clearance / accumulation in the body", "conditions": "in vivo", "text": "A 4 days on and 3 days off cycle in a week is one such cycle, the cycle may be modified to accommodate patients having pharmacokinetics allowing for more days on or requiring more days off such as 5 days on and 2 days off or 3 days on and 4 days off or 6 days on and 1 day off, or 6 days on and 1 day off. The 4 days on and 3 days off regimen or a modified regimen may be repeated for a 21-day cycle or a longer cycle. For example, Compound (1) or its pharmaceutically acceptable salt may be administered consecutively on each of the following four days during a 21-day period: days 1 through 4, days 8 through 11, and days 15 through 18, with a prescribed rest on days 5 through 7, days 12 through 14, and days 19 through 21. Such intermittent administration is applicable also to the combination therapies where Compound (1) or its pharmaceutical acceptable salt is administered in combination with one or more agents."}}, "data": [{"smiles": "C[C@]1(O)C[C@@](N)(c2ccc(-c3nc4n(c3-c3ccccc3)COc3ccncc3-4)cc2)C1", "note": "[Compound (1)]", "values": [{"measurement": "treatment-related Grade ≥3 AE: hyperglycemia", "setting": "[1]; Grade ≥3", "value": 12.5, "unit": "%"}, {"measurement": "treatment-related Grade ≥3 AE: mucositis oral", "setting": "[1]; Grade ≥3", "value": 12.5, "unit": "%"}, {"measurement": "treatment-related Grade ≥3 AE: neutrophil count decreased", "setting": "[1]; Grade ≥3", "value": 12.5, "unit": "%"}, {"measurement": "treatment-related Grade ≥3 AE: rash and maculopapular rash", "setting": "[1]; Grade ≥3", "value": 25.0, "unit": "%"}, {"measurement": "treatment-related AE: decreased appetite", "setting": "[1]; any grade", "value": 18.8, "unit": "%"}, {"measurement": "treatment-related AE: diarrhea", "setting": "[1]; any grade", "value": 18.8, "unit": "%"}, {"measurement": "treatment-related AE: fatigue", "setting": "[1]; any grade", "value": 37.5, "unit": "%"}, {"measurement": "treatment-related AE: hyperglycemia", "setting": "[1]; any grade", "value": 31.3, "unit": "%"}, {"measurement": "treatment-related AE: mucositis oral", "setting": "[1]; any grade", "value": 18.8, "unit": "%"}, {"measurement": "treatment-related AE: nausea", "setting": "[1]; any grade", "value": 12.5, "unit": "%"}, {"measurement": "treatment-related AE: pruritus", "setting": "[1]; any grade", "value": 25.0, "unit": "%"}, {"measurement": "treatment-related AE: rash and maculopapular rash, patients", "setting": "[1]; any grade, up to 20 mg QD / 24 mg intermittent", "value": 62.5, "unit": "%"}, {"measurement": "safety profile", "setting": "[1]; up to 20 mg QD and 24 mg intermittent dosing, patients with advanced cancer", "value": "generally acceptable and clinically manageable"}, {"measurement": "patients with tumor shrinkage", "setting": "[2]; of the 15 patients treated, PIDs 100-006, 200-005, 100-009, 200-007", "value": 4, "unit": "patients"}, {"measurement": "response in the target lesion (Lymph Node)", "setting": "[2]; patient 100-006", "value": "complete response"}, {"measurement": "tumor shrinkage", "setting": "[2]; patient 100-006", "value": "over 50%"}, {"measurement": "tumor shrinkage", "setting": "[2]; patient 100-009", "value": "about 10%"}, {"measurement": "tumor shrinkage", "setting": "[2]; patient 200-007", "value": "about 5%"}, {"measurement": "patients with objective response", "setting": "[3]; endometrial cancer harboring PIK3CA mutation", "value": "one"}, {"measurement": "patients with objective response", "setting": "[3]; ovarian clear cell carcinoma", "value": 3, "unit": "patients"}, {"measurement": "shelf life indicated", "setting": "[4]; room temperature, inferred from 40° C. six-month storage", "value": 24, "unit": "month"}, {"measurement": "stability on storage", "setting": "[4]; stored at 40° C. for six months", "value": "good stability"}, {"measurement": "clearance from the body", "setting": "[5]", "value": "not cleared from the body quickly but can accumulate in the body"}]}]}
